Reference: paper PMC8629109 (Journal of medicinal chemistry, 2020)
Like-named read-outs stand apart in the source and are kept apart here.

Columns and labels:
[1] = PAMPA high / low permeability standard, value as stated, ref not given; cited from earlier work
[2] = Rat liver microsomal stability; type: in vitro ADME; settings: Sprague-Dawley, liver microsomes, pH 7.4
mGluR2 [3] = target: mGluR2 (Rattus norvegicus, UniProt P31421); experiment: PET imaging and blocking studies in rat brain; type: in vivo, Sprague-Dawley rats; settings: pretreatment 4 mg/kg i.v. 10 min before [11C]13, 10–30 min time window
[4] = Plasma stability in rat serum; type: in vitro ADME; settings: 37 °C
[5] = Solution stability in aqueous buffers; type: physicochemical
recombinant human P-gp = recombinant human P-gp (Homo sapiens, UniProt P08183); experiment: Pgp-Glo assay, P-gp ATPase activity; settings: compared with basal and verapamil activities; test compound 200 μM
[6] = system: other mGluR subtypes (mGluR1, mGluR3, mGluR4, mGluR5, mGluR6, mGluR8); experiment: Selectivity among mGluR subtypes; settings: versus mGluR2
mGluR2 [7] = target: T1, mGluR2 (Homo sapiens, UniProt Q14416); experiment: Competitive binding assay with [3H]JNJ-46281222 in mGluR2 transfected CHO cells
mGluR2 [8] = target: T1, mGluR2; experiment: GloSensor cAMP biosensor assay, mGluR2 PAM activity; settings: read-out: EC50, mGluR2 PAM activity; in the presence of EC20 amount of L-glutamate; intracellular cAMP

T1 sequence (Q14416 19-872): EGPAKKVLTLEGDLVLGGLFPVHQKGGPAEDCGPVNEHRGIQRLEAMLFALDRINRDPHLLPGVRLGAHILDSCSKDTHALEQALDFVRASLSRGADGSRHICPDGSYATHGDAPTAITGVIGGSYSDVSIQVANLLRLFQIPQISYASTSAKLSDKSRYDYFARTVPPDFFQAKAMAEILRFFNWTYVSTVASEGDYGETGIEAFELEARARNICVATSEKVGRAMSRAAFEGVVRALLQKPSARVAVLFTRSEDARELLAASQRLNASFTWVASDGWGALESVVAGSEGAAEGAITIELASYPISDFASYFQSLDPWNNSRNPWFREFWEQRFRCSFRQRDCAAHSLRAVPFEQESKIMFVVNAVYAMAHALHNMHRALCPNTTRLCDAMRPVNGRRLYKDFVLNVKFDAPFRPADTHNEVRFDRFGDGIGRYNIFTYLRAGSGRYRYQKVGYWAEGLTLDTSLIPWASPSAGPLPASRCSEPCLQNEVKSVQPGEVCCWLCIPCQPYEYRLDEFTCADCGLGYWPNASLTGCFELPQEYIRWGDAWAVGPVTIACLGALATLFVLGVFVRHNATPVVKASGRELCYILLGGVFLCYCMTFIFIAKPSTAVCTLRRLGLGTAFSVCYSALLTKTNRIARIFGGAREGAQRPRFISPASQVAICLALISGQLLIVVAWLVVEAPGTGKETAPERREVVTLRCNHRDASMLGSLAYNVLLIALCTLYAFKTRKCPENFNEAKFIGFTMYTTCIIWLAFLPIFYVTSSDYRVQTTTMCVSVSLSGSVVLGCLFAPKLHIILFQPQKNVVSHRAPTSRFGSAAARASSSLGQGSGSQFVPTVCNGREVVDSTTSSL
Chain of recombinant human P-gp (P08183 whole entry): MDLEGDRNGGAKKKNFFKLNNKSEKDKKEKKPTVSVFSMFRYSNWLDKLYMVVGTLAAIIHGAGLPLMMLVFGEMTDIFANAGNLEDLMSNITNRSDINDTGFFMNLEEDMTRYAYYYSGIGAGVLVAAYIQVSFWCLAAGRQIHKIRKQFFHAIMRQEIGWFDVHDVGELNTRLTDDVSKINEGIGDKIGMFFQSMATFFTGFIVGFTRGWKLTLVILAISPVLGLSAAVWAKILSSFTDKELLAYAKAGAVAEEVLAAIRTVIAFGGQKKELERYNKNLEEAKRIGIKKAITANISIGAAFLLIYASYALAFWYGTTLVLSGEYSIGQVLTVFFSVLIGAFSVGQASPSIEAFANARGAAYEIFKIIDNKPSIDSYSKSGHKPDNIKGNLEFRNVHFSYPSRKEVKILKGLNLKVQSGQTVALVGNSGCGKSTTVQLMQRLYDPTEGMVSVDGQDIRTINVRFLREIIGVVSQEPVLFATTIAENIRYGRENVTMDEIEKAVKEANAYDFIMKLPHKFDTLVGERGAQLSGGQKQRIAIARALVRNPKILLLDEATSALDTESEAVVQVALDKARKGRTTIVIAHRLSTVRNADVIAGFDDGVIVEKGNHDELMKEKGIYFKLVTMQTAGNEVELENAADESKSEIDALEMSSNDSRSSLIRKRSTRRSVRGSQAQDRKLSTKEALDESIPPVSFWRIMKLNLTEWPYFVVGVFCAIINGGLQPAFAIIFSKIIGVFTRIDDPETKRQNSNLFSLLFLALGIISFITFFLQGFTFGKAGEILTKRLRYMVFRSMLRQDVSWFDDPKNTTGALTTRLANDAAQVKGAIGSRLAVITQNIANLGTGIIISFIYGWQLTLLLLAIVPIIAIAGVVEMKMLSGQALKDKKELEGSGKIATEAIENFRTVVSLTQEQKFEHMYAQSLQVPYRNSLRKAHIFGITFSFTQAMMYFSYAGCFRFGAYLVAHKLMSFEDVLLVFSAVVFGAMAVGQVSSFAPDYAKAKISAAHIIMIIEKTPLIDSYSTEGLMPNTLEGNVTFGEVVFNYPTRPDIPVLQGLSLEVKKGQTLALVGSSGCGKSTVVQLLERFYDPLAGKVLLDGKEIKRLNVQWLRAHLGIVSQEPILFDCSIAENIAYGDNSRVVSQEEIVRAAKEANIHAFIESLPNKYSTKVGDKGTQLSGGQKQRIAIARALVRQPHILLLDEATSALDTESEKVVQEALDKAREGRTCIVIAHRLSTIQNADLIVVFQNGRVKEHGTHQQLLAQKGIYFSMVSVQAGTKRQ
Chain of mGluR2 (Rattus norvegicus, UniProt P31421) (P31421 19-872): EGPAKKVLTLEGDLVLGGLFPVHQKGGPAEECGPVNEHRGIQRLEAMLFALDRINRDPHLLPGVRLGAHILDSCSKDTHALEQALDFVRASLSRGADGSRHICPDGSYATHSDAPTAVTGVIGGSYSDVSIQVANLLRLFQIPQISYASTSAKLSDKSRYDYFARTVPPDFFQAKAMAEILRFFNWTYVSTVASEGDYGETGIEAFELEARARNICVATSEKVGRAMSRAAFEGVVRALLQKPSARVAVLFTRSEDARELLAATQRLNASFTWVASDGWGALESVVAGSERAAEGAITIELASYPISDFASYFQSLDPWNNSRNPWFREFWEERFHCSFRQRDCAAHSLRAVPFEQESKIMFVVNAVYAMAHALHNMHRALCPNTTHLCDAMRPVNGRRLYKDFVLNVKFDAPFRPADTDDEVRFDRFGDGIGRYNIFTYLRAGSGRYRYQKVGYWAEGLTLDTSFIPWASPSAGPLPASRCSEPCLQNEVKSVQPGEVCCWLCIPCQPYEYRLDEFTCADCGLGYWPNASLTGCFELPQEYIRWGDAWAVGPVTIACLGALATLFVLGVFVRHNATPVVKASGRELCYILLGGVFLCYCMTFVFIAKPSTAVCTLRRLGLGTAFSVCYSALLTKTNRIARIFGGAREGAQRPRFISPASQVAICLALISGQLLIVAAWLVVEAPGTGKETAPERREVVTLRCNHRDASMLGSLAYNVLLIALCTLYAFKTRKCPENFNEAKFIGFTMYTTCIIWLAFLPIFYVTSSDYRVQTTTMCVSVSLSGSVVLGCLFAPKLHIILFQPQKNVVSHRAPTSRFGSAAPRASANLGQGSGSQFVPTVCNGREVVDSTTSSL

Cn1c(=O)c2[nH]cnc2n(C)c1=O [theophylline]
Pe of quality control standard [1]: 0.12 ×10⁻⁶ cm/s

COc1cc(NC(=O)c2ccccn2)ccc1Cl [ML128, reference compound]
half-life at 3 μM [2]: 0.07 h | microsomal CLint at 3 μM [2]: 317 µL/min/mg

Fc1ccc(N2CCN(Cc3ccn4c(CC5CC5)nnc4c3C(F)(F)F)CC2)c(F)c1 [Compound 17, 3-(Cyclopropylmethyl)-7-((4-(2,4-difluorophenyl)piperazin-1-yl)methyl)-8-(trifluoromethyl)[1,2,4]triazolo[4,3-a]pyridine, reference compound]
decrease of [11C]13 uptake in different brain areas (mGluR2 [3]): 28–37%

COc1cc(C(F)(F)F)ccc1C1CCN(Cc2nc3ncccc3n2C)CC1 [Compound 13, 2-((4-(2-Methoxy-4-(trifluoromethyl)phenyl)piperidin-1-yl)methyl)-1-methyl-1H-imidazo[4,5-b]pyridine]
The plasma stability: the intact ± SEM at 120 min [4]: 96.6 ± 2.1% | The solution stability: the intact ± SEM at 120 min ([5]; pH = 5.0, 37 °C): 95.3 ± 0.3% | The solution stability: the intact ± SEM at 120 min ([5]; pH = 7.4, 37 °C): 94.5 ± 0.4% | The solution stability: the intact ± SEM at 120 min ([5]; pH = 9.4, 37 °C): 96.1 ± 0.7% | enhancement of radioactivity uptake in the different brain areas (mGluR2 [3]): 33–49% | half-life at 3 μM [2]: 1.24 h | P-gp ATPase activity (recombinant human P-gp): moderate | P-gp substrate assessment (recombinant human P-gp): not a P-gp substrate | selectivity against other mGluR subtypes [6]: > 100 fold | IC50 (mGluR2 [7]): 7.6 ± 0.9 nM

COc1cc(C(F)(F)F)ccc1C1CCN(Cc2nc3nccc4c3n2CCC4)CC1 [Compound 14, 2-((4-(2-Methoxy-4-(trifluoromethyl)phenyl)piperidin-1-yl)methyl)-5,6-dihydro-4H-imidazo [4,5,1-ij][1,7]naphthyridine]
The plasma stability: the intact ± SEM at 120 min [4]: 89.2 ± 0.6% | half-life at 3 μM [2]: 1.23 h | microsomal CLint at 3 μM [2]: 18.1 µL/min/mg | IC50 (mGluR2 [7]): 10.5 ± 0.5 nM

COc1cc(C(F)(F)F)ccc1OC[C@@H]1[C@H]2CN(Cc3nc4ncccc4n3C)C[C@@H]12 [Compound 15, 2-(((1R,5S,6R)-6-((2-methoxy-4-(trifluoromethyl)phenoxy)methyl)-3-azabicyclo[3.1.0]hexan-3-yl)methyl)-1-methyl-1H-imidazo[4,5-b]pyridine]
IC50 (mGluR2 [7]; read-out: IC50 ± SEM, mGluR2 transfected CHO cells, 10 nM [3H]JNJ-46281222): 10.5 ± 7.9 nM | EC50 (mGluR2 [8]): 7800 nM

COc1ccc([C@@H]2Sc3ccccc3N(CCN(C)C)C(=O)[C@@H]2OC(C)=O)cc1 [Diltiazem, reference compound]
The plasma stability: the intact ± SEM at 120 min [4]: 43.2 ± 0.8%
